Data published in article PMC10535864, “Novel Aminopyrimidine-2,4-diones, 2-Thiopyrimidine-4-ones, and 6-Arylpteridines as Dual-Target Inhibitors of BRD4/PLK1: Design, Synthesis, Cytotoxicity, and Computational Studies” (Pharmaceuticals, 2023).

Experiments:
Assay type in all cases: cell-based
[1] = system: HT-29 colorectal adenocarcinoma cells; assay: MTT cytotoxicity assay, HT-29; details: MTT
Method: (§1) All newly synthetic compounds were tested for cytotoxicity using a six-dose MTT colorimetric assay on three cancer cell lines; namely, breast cancer cells (MDA-MB-231), colorectal adenocarcinoma cells (HT-29) and renal cancer cells (U-937). […] However, renal cancer cells (U-937) were discovered to be the least sensitive.
(§2) Using a six-dose MTT colorimetric assay, all new synthetic compounds were tested for cytotoxicity against three cancer cell lines: MDA-MB-231 breast cancer cells, HT-29 colorectal adenocarcinoma cells, and U-937 renal cancer cells. […] These cell lines were supplied by ATCC (American Type Culture Collection) via the Holding company for biological products and vaccines (VACSERA, Cairo, Egypt). The reference control used was Methotrexate. Detailed descriptions of the MTT colorimetric assay’s protocol can be found in the Supplementary file.
(§3) 1.1.In-vitro cytotoxicity screening
(§4) Using a six-dose MTT colorimetric assay, allnew synthetic compounds were tested for cytotoxicity against three cancer cell lines: MDA-MB-231 breast cancer cells,HT-29 colorectal adenocarcinoma cells, and U-937 renal […]
(§5) The cell lines were supplied by ATCC (American Type Culture Collection). The reference control used was Methotrexate. The cytotoxic activities of the examined compounds were quantified by inoculating a 96-well tissue culture plate with 1 X 10^5 cells / mL (100 uL/well) and incubating it at 37°C for 24 hours to develop a complete monolayer sheet. After forming a confluent sheet of cells, the growth medium was decanted from 96-well microtiter plates, and the cell monolayer was washed twice with wash media. Two-fold dilutions of tested samples were made in RPMI medium with 2% serum (maintenance medium), and 0.1 mL of each dilution was tested in different wells, with three wells serving as controls and receiving only maintenance medium. Following that, the plate was incubated at 37°C and examined. Cells were investigated for any physical signs of toxicity, such as partial or complete monolayer loss, rounding, shrinkage, or cell granulation. MTT solution was prepared (5mg/ml in PBS) (BIO BASIC CANADA INC), and 20 uL MTT solution was added to each well. After 5 minutes on a shaking table at150 rpm to thoroughly mix the MTT into the media, it was incubated (37°C, 5% CO2) for 4 hours to allow the MTT to be metabolized. Formazan (MTT metabolic product) was resuspended in 200 uL DMSO and shaken at 150 rpm for 5 minutes to thoroughly mix the formazan into the solvent. The optical density was measured at 560 nm, and the background was subtracted at 620 nm. Finally, the IC50 of the test compound in comparison to the reference was calculated using the GraphPad Prism software. […]

[2] = MTT cytotoxicity assay, U-937; details: Homo sapiens, U-937, U937, MTT;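 further: Six-dose MTT colorimetric assay on cell monolayers, formazan absorbance read at 560 nm with 620 nm background removed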
U-937 renal cancer cells = assay: MTT cytotoxicity assay, U-937; details: MTT; for Toxicity %: U937;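 on all read-outs here: Six-dose MTT colorimetric assay on cell monolayers, formazan absorbance read at 560 nm with 620 nm background removed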
[3] = system: MDA-MB-231 breast cancer cells; assay: MTT cytotoxicity assay, MDA-MB-231; details: MDA-MB-231, MTT
Method: as §1, §2, §3, §4, §5

Nc1c(/N=C(/CBr)c2ccc([N+](=O)[O-])cc2)c(=O)[nH]c(=O)n1Cc1ccccc1Cl [Compound 5c, (E)-6-Amino-5-((2-bromo-1-(4-nitrophenyl)ethylidene)amino)-1-(2-chlorobenzyl) pyrimidine-2,4(1H,3H)-dione]
Toxicity % ([1]; HT29, 0.312 uM): 0.1292%
Toxicity % ([1]; HT29, 0.625 uM): 0.2153%
Toxicity % ([1]; HT29, 1.25 uM): 6.417%
Toxicity % ([1]; HT29, 2.5 uM): 59.99%
Toxicity % ([1]; HT29, 5 uM): 93.84%
Toxicity % ([1]; HT29, 10 uM): 94.36%
viability at 0.312 µM ([1]; Homo sapiens, HT-29, HT29, 0.312 uM): 99.9%
viability at 0.625 µM ([1]; Homo sapiens, HT-29, HT29, 0.625 uM): 99.8%
viability at 1.25 µM ([1]; Homo sapiens, HT-29, HT29, 1.25 uM): 93.6%
viability at 2.5 µM ([1]; Homo sapiens, HT-29, HT29, 2.5 uM): 40%
viability at 5 µM ([1]; Homo sapiens, HT-29, HT29, 5 uM): 6.16%
viability at 10 µM ([1]; Homo sapiens, HT-29, HT29, 10 uM): 5.64%
IC50 ([1]; Homo sapiens, HT-29, mean of three independent experiments ± SD, read-out: IC50 Value HT-29): 2.24 ± 0.04 µM
viability at 0.312 µM ([2]; 0.312 uM): 99.7%
viability at 0.625 µM ([2]; 0.625 uM): 99.5%
viability at 1.25 µM ([2]; 1.25 uM): 99.7%
viability at 2.5 µM ([2]; 2.5 uM): 99.3%
viability at 5 µM ([2]; 5 uM): 48.2%
viability at 10 µM ([2]; 10 uM): 14.3%
IC50 (U-937 renal cancer cells; Homo sapiens, U-937, mean of three independent experiments ± SD, read-out: IC50 Value U-937): 6.17 ± 0.15 µM
Toxicity % (U-937 renal cancer cells; 0.312 uM): 0.3268%
Toxicity % (U-937 renal cancer cells; 0.625 uM): 0.4902%
Toxicity % (U-937 renal cancer cells; 1.25 uM): 0.2723%
Toxicity % (U-937 renal cancer cells; 2.5 uM): 0.6536%
Toxicity % (U-937 renal cancer cells; 5 uM): 51.8%
Toxicity % (U-937 renal cancer cells; 10 uM): 85.73%
IC50 ([3]; Homo sapiens, mean of three independent experiments ± SD, read-out: IC50 Value MDA-MB-231): 3.28 ± 0.04 µM
viability at 0.312 µM ([3]; Homo sapiens, 0.312 uM): 99.4%
viability at 0.625 µM ([3]; Homo sapiens, 0.625 uM): 98.4%
viability at 1.25 µM ([3]; Homo sapiens, 1.25 uM): 96.1%
viability at 2.5 µM ([3]; Homo sapiens, 2.5 uM): 62.4%
viability at 5 µM ([3]; Homo sapiens, 5 uM): 14.9%
viability at 10 µM ([3]; Homo sapiens, 10 uM): 5.54%
Toxicity % ([3]; 0.312 uM): 0.6206%
Toxicity % ([3]; 0.625 uM): 1.551%
Toxicity % ([3]; 1.25 uM): 3.901%
Toxicity % ([3]; 2.5 uM): 37.63%
Toxicity % ([3]; 5 uM): 85.06%
Toxicity % ([3]; 10 uM): 94.46%
